This is an account of results in patent US20020111355A1, “Cyclic urea and cyclic amide derivatives” (American Home Products Corporation, priority 1999, published 2002).

For data set [1], the system named is rat uterine decidualization. The data set is described as follows: Rat decidualization assay. The following applies: average over dose-response curves; decidual response; s.c.
A further data set has as its system T47D cells. The data set is described as follows: T47D cell proliferation assay (BrdU incorporation). It is filed as cell-based. The following applies: Homo sapiens, decrease in trimegestone induced BrdU incorporation (0.03 nM trimegestone), individual studies. The method, then: 3. T47D Cell Proliferation Assay
The objective of this assay is the determination of progestational and antiprogestational potency by using a cell proliferation assay in T47D cells. A compound's effect on DNA synthesis in T47D cells is measured.
DMEM:F12 (1:1) (GIBCO, BRL) supplemented with 10% (v/v) fetal bovine serum (not heat-inactivated), 100 U/ml penicillin, […], and 2 mM GlutaMax (GIBCO, BRL).
Minimum Essential Medium (MEM) (#51200-038GIBCO, BRL) phenol red-free supplemented with 0.5% charcoal stripped fetal bovine serum, 100 U/ml penicillin, […] streptomycin, and 2 mM GlutaMax (GIBCO, BRL). […]
At the end of BrdU labeling, the medium is removed and BrdU incorporation is measured using a cell proliferation ELISA kit (#RPN 250, Amersham Life Science) according to manufacturer's instructions. […] Then 25 μl of 1 M sulfuric acid is added to each well to stop color reaction and optical density is read in a plate reader at 450 nm within 5 min.
Square root-transformed data are used for analysis of variance and nonlinear dose response curve fitting for both agonist and antagonist modes. […] EC50 or IC50 values are calculated from the retransformed values. […]

As to `C#C[C@]1(O)CC[C@H]2[C@@H]3CCC4=CC(=O)CC[C@@H]4[C@H]3C(=C)C[C@@]21CC` [3-Ketodesogestrel], in data set [1], the “average EC50” value was determined as 0.10 mg/kg. s.c.
On to `CC1(C)OC(=O)Nc2ncc(-c3cccc(Cl)c3)cc21` [Example 4, 6-(3-Chloro-phenyl)-4,4-dimethyl-1,4-dihydro-3-oxa-1,8-diaza-naphthalene-2-one], for which the melting point is 214 to 215 °C.
On to `C#C[C@]1(O)CC[C@H]2[C@@H]3CCC4=CC(=O)CC[C@@H]4[C@H]3CC[C@@]21CC` [Levonorgestrel], for which, in data set [1], the “average EC50” value is 0.10 mg/kg. s.c.
Consider `CC#C[C@]1(O)CC[C@H]2[C@@H]3CCC4=CC(=O)CCC4=C3[C@@H](c3ccc(N(C)C)cc3)C[C@@]21C` [RU486], for which the IC50 with T47D cells amounted to 0.011 nM.
